Source: patent US4195172A
In brackets after ≈: the same amount, converted by molar mass. Several values for one entry are separate records, joined by “and”; a condition that tells them apart may be missing. Equal values may be shown once. Where a name gives a salt, the structure may show the parent alone. Read-outs that look alike come from different tables or passages of the source.

Tests used:
[1] = IC50 of products of the examples and original antibiotics; assay type: cell-based; settings: test organism not given
[2] = prior art; cited from earlier work
pH of 1% water solution = assay type: physicochemical
[3] = Biological activity in U/mg; assay type: cell-based
[4] = Presence of antibiotic in serum after intravenous administration to rats; assay type: in vivo
Source text: In intravenous administration to rats of N-methylglucamine salts of polyene macrolide N-glycosyl derivatives as compared to Fungizone the effect is much more advantageous for the N-methylglucamine salts because the presence of antibiotic in the serum after administration can be found longer that in the case of Fungizone/Table 5/.

Geotrichum candidum = experiment: Protection of mice in generalized geotrichosis; assay type: in vivo; settings: for in vivo activity compared with Fungizone (in words), geotrichosis: generalized geotrichosis caused by Geotrichum candidum; for ED50: read-out: Average protective DP50 doses, generalized geotrichosis
Method: (§1) Average protective DP50 doses
(§2) 24 hours in a case of genera-

Candida albicans [5] = experiment: Experimental chemotherapy of Candida albicans infected mice; assay type: in vivo; settings: Fungizone = 1
Source text: The relative activity index representing the antibiotic activity in experimental chemotherapy of Candida albicans infected mice is much more advantageous for the N-methylglucamine salts of the N-glycosyl derivatives of polyene macrolides than for Fungizone/Table 4/.

Aspergillus fumigatus = experiment: Protection of mice in generalized aspergillosis; assay type: in vivo; settings: for ED50: read-out: Average protective DP50 doses, generalized aspergillosis
Method: as §1, §2

[6] = Selective toxicity: hemolysis of human erythrocytes versus potassium ion effluence from Saccharomyces cerevisiae cells; assay type: cell-based; settings: human erythrocytes vs saccharomyces cerevisiae; 50% hemolysis of human erythrocytes / 50% potassium effluence from Saccharomyces cerevisiae cells; column head is drawing 2; read-out: Selective toxicity index EH50/DK50
Source text: (§3) The data representing the selective toxicity are also more advantageous for the N-methylglucamine salt of N-glycosyl derivatives of polyene macrolides than for Fungizone. The indices of selective toxicity EK50 /DK50 and EH50 /DK50, illustrating the ratio of the minimal antibiotic concentration causing 50% effluence of the potassium ions from erythrocytes of human blood/EK50 /and the minimal concentration of antibiotic causing 50% hemolysis of erythrocytes/EH50 /to the minimal antibiotic concentration causing 50% effluence of the potassium ions from Saccharomyces cerevisiae cells/DK50 /are compared in Table 6.

Candida krusei = experiment: Sensitivity of Candida krusei strains; assay type: cell-based
Source text: (§4) There is a different sensitivity of different strains, for example Candida sp. to the N-methylglucamine salt of the N-glycosyl derivative of amphotericin B and Fungizone. Statistically, the amount of to Fungizone insensitive strains is much higher than the amount of to N-methylglucaminesalt of the said derivative insensitive strains. This especially concerns Candida albicans strains ZM, HM, and 1/75, Candida tropicalis strains JD and 20/75 and Candida krusei strains TS and 16/75, which are insensitive to Fungizone, but sensitive to N-methylglucamine salt of N-glycosyl derivative of amphotericin B.

Candida tropicalis = experiment: Sensitivity of Candida tropicalis strains; assay type: cell-based
Source text: as §4

[7] = Stability on storage at different temperatures within 6 months (retained biological activity); settings: storage within 6 months, initial biological activity assumed as 100%, 262800 min
[8] = Acute toxicity on intravenous administration in mice; settings: mouse, in vivo, administered intravenously, read-out: DL50 (the source's name)
[9] = system: Torula sp., Geotrichum candidum and Cryptococcus neoformans; experiment: In vitro antifungal activity in comparison with Fungizone (in words); assay type: cell-based
Source text: The in vitro activities of the N-methylglucamine salts of the N-glycosyl derivative of amphotericin B and Fungizone against some fungi are compared in Table 3.

Candida albicans [10] = experiment: Sensitivity of Candida albicans strains; assay type: cell-based
Source text: as §4

[11] = Selective toxicity: potassium ion effluence from human erythrocytes versus Saccharomyces cerevisiae cells; assay type: cell-based; settings: human erythrocytes vs saccharomyces cerevisiae; 50% effluence of potassium ions from human erythrocytes / from Saccharomyces cerevisiae cells; column head is drawing 1; read-out: Selective toxicity index EK50/DK50
Source text: as §3

[12] = aspergillosis caused by Aspergillus fumigatus

Work on `C[C@@H]1[C@H](O)[C@@H](C)/C=C/C=C/CC/C=C/C=C/C=C/C=C/[C@H](O[C@@H]2O[C@H](C)[C@@H](O)[C@H](NC3O[C@H](CO)[C@H](O)[C@H](O)[C@H]3O)[C@@H]2O)C[C@@H]2O[C@](O)(C[C@@H](O)[C@H](O)CC[C@@H](O)C[C@@H](O)C[C@@H](O)CC(=O)O[C@H]1C)C[C@H](O)[C@H]2C(=O)O` (stereo partly drawn) [X, N-methylglucamine salt of N-glycosyl nystatin] yielded an IC50 ([1]; read-out: IC50) of 0.45 mg/L.
`C[C@@H]1[C@H](O)[C@@H](C)/C=C/C=C/CC/C=C/C=C/C=C/C=C/[C@H](O[C@@H]2O[C@H](C)[C@@H](O)[C@H](NC3O[C@H](CO)[C@@H](O)[C@H](O)[C@H]3O)[C@@H]2O)C[C@@H]2O[C@](O)(C[C@@H](O)[C@H](O)CC[C@@H](O)C[C@@H](O)C[C@@H](O)CC(=O)O[C@H]1C)C[C@H](O)[C@H]2C(=O)O` (stereo partly drawn) [VII, N-methylglucamine salt of the N-glycosyl derivative of nystatin] showed an IC50 ([1]; read-out: IC50) of 0.45 mg/L.
In the case of `COC(=O)[C@H]1[C@@H]2C[C@@H](O[C@@H]3O[C@H](C)[C@@H](O)[C@H](N)[C@@H]3O)/C=C/C=C/C=C/C=C/C=C/C=C/C=C/[C@H](C)[C@@H](O)[C@@H](C)[C@H](C)OC(=O)C[C@H](O)C[C@H](O)CC[C@@H](O)[C@H](O)C[C@H](O)C[C@](O)(C[C@@H]1O)O2` [hydrochloride of methyl esters of amphotericin B], the “solubility in water (in words, from literature)” value [2] is given as “forms in water merely micelle”.
For polifungin [reference compound], the IC50 [1] was 0.15 mg/L and 0.16 mg/L.
In the case of `C[C@@H]1[C@H](O)[C@@H](C)/C=C/C=C/CC/C=C/C=C/C=C/C=C/[C@H](O[C@@H]2O[C@H](C)[C@@H](O)[C@H](NC3O[C@H](CO)[C@@H](O)[C@H](O)[C@H]3O)[C@@H]2O)C[C@@H]2O[C@](O)(C[C@@H](O)[C@H](O)CC[C@@H](O)C[C@@H](O)C[C@@H](O)CC(=O)O[C@H]1C)C[C@H](O)[C@H]2C(=O)O` (stereo partly drawn) [Sodium salt of N-glycosyl derivative of nystatin] [reference compound], the Solubility in water (Solubility in water) is reported as 4-10%, the “pH 1% water solution” value (pH of 1% water solution) is reported as 9.7 and the Biological activity [3] is reported as 1296 U/mg.
For `C[C@@H]1[C@H](O)[C@@H](C)/C=C/C=C/C=C/C=C/C=C/C=C/C=C/[C@H](O[C@@H]2O[C@H](C)[C@@H](O)[C@H](NC3O[C@H](CO)[C@@H](O)[C@H](O)[C@H]3O)[C@@H]2O)C[C@@H]2O[C@](O)(C[C@@H](O)C[C@@H](O)[C@H](O)CC[C@@H](O)C[C@@H](O)CC(=O)O[C@H]1C)C[C@H](O)[C@H]2C(=O)O` (stereo partly drawn) [II, tris salt of the N-glycosyl derivative of amphotericin B], the IC50 [1] was 0.6 mg/L.
`C[C@@H]1[C@H](O)[C@@H](C)/C=C/C=C/CC/C=C/C=C/C=C/C=C/[C@H](O[C@@H]2O[C@H](C)[C@@H](O)[C@H](N)[C@@H]2O)C[C@@H]2O[C@](O)(C[C@@H](O)[C@H](O)CC[C@@H](O)C[C@@H](O)C[C@@H](O)CC(=O)O[C@H]1C)C[C@H](O)[C@H]2C(=O)O` [nystatin, reference compound] gave an IC50 ([1]; read-out: IC50) of 0.18 mg/L (≈ 0.194 µM).
Work on `C[C@@H]1[C@H](O)[C@@H](C)/C=C/C=C/C=C/C=C/C=C/C=C/C=C/[C@H](O[C@@H]2O[C@H](C)[C@@H](O)[C@H](NC3O[C@H](CO)[C@@H](O)[C@H](O)[C@H]3O)[C@@H]2O)C[C@@H]2O[C@](O)(C[C@@H](O)C[C@@H](O)[C@H](O)CC[C@@H](O)C[C@@H](O)CC(=O)O[C@H]1C)C[C@H](O)[C@H]2C(=O)O` (stereo partly drawn) [Example I, sodium salt of the N-glycosyl derivative of the amphotericin B] yielded an IC50 [1] of 0.05 mg/L.
`C[C@@H]1[C@H](O)[C@@H](C)/C=C/C=C/C=C/C=C/C=C/C=C/C=C/[C@H](O[C@@H]2O[C@H](C)[C@@H](O)[C@H](NC3O[C@H](CO)[C@@H](O)[C@H](O)[C@H]3O)[C@@H]2O)C[C@@H]2O[C@](O)(C[C@@H](O)C[C@@H](O)[C@H](O)CC[C@@H](O)C[C@@H](O)CC(=O)O[C@H]1C)C[C@H](O)[C@H]2C(=O)O` (stereo partly drawn) [VIII, N-methylglucamine salt of N-glycosyl derivative of amphotericin B] showed an IC50 [1] of 0.1 mg/L.
With `C[C@@H]1[C@H](O)[C@@H](C)/C=C/C=C/CC/C=C/C=C/C=C/C=C/[C@H](O[C@@H]2O[C@H](C)[C@@H](O)[C@H](NC3O[C@H](CO)[C@@H](O)[C@H](O)[C@H]3O)[C@@H]2O)C[C@@H]2O[C@](O)(C[C@@H](O)[C@H](O)CC[C@@H](O)C[C@@H](O)C[C@@H](O)CC(=O)O[C@H]1C)C[C@H](O)[C@H]2C(=O)O` (stereo partly drawn) [N-methylglucamine salt of N-glycosyl derivative of nystatin] [listing 1 of 2 here] the “Time of the presence of an antibiotic in serum after 1/5 DL50 dose administration” value [4] was 30 min, the Solubility in water (Solubility in water) was > 15% and the “in vivo activity compared with Fungizone (in words), geotrichosis” value (Geotrichum candidum) was “higher activity than Fungizone”. For the same compound, the “pH 1% water solution” value (pH of 1% water solution) was 8.3, the Biological activity [3] was 1780 U/mg and the “Relative activity index in Candida albicans mice infection” value (Candida albicans [5]) was 2.41. For the same compound, the “in vivo activity compared with Fungizone (in words), aspergillosis” value (Aspergillus fumigatus; [12]) was “higher activity than Fungizone”.
`C[C@@H]1[C@H](O)[C@@H](C)/C=C/C=C/CC/C=C/C=C/C=C/C=C/[C@H](O[C@@H]2O[C@H](C)[C@@H](O)[C@H](NC3O[C@H](CO)[C@@H](O[C@H]4O[C@H](CO)[C@@H](O)[C@H](O)[C@H]4O)[C@H](O)[C@H]3O)[C@@H]2O)C[C@@H]2O[C@](O)(C[C@@H](O)[C@H](O)CC[C@@H](O)C[C@@H](O)C[C@@H](O)CC(=O)O[C@H]1C)C[C@H](O)[C@H]2C(=O)O` (stereo partly drawn) [XI, N-methylglucamine salt of N-glycosyl nystatin] showed an IC50 ([1]; read-out: IC50) of 0.45 mg/L.
In the case of `C[C@@H]1[C@H](O)[C@@H](C)/C=C/C=C/C=C/C=C/C=C/C=C/C=C/[C@H](O[C@@H]2O[C@H](C)[C@@H](O)[C@H](NC3O[C@H](CO)[C@@H](O)[C@H](O)[C@H]3O)[C@@H]2O)C[C@@H]2O[C@](O)(C[C@@H](O)C[C@@H](O)[C@H](O)CC[C@@H](O)C[C@@H](O)CC(=O)O[C@H]1C)C[C@H](O)[C@H]2C(=O)O` (stereo partly drawn) [N-methylglucamine salt of N-glycosyl derivative of amphotericin B], the “Time of the presence of an antibiotic in serum after 1/5 DL50 dose administration” value [4] is reported as 15 min, the selectivity ratio [6] is reported as 24 and the “in vivo activity compared with Fungizone (in words), geotrichosis” value (Geotrichum candidum) is reported as “corresponds to activity of Fungizone”. For the same compound, the ED50 (Geotrichum candidum; mice, geotrichosis caused by Geotrichum candidum) was 17.9 mg/kg, the sensitivity of strain (Candida krusei; Candida krusei strain 16/75) was “sensitive” and the sensitivity of strain (Candida krusei; Candida krusei strain TS) was “sensitive”. For the same compound, the sensitivity of strain (Candida tropicalis; Candida tropicalis strain 20/75) was “sensitive”, the sensitivity of strain (Candida tropicalis; Candida tropicalis strain JD) was “sensitive” and the remaining at 4380 h (physchem) was 81.2%. The “Biological activity in % at +37° C.” value ([7]; +37° C.) was 77.0%, the “Biological activity in % at +50° C.” value ([7]; +50° C.) was 79.8% and the “Biological activity in % at RT” value ([7]; RT) was 83.1%. The LD50 [8] was 12.1 to 14.3 mg/kg, the “antifungal activity in comparison with Fungizone (in words)” value [9] was “exhanced antifungal activity” and the “Relative activity index in Candida albicans mice infection” value (Candida albicans [5]) was 2.35. For the same compound, the sensitivity of strain (Candida albicans [10]; Candida albicans strain 1/75) was “sensitive”, the sensitivity of strain (Candida albicans [10]; Candida albicans strain HM) was “sensitive” and the sensitivity of strain (Candida albicans [10]; Candida albicans strain ZM) was “sensitive”. For the same compound, the “in vivo activity compared with Fungizone (in words), aspergillosis” value (Aspergillus fumigatus; [12]) was “corresponds to activity of Fungizone”, the ED50 (Aspergillus fumigatus; mice, aspergillosis caused by Aspergillus fumigatus) was 22.7 mg/kg and the selectivity ratio [11] was 1.37.
In the case of `C[C@@H]1[C@H](O)[C@@H](C)/C=C/C=C/CC/C=C/C=C/C=C/C=C/[C@H](O[C@@H]2O[C@H](C)[C@@H](O)[C@H](NC3O[C@H](CO)[C@@H](O)[C@H](O)[C@H]3O)[C@@H]2O)C[C@@H]2O[C@](O)(C[C@@H](O)[C@H](O)CC[C@@H](O)C[C@@H](O)C[C@@H](O)CC(=O)O[C@H]1C)C[C@H](O)[C@H]2C(=O)O` (stereo partly drawn) [N-methylglucamine salt of N-glycosyl derivative of nystatin] [listing 2 of 2 here], the selectivity ratio [6] is reported as 45, the ED50 (Geotrichum candidum; Geotrichum candidum) is reported as 4.49 mg/kg and the LD50 [8] is reported as 19 mg/kg. It also gave an ED50 (Aspergillus fumigatus; Aspergillus fumigatus) of 6.28 mg/kg and a selectivity ratio [11] of 17.3.
